Values after ≈ are worked out from the molar mass of the structure shown. Where two headings read alike, the source gives them in different places.

Data set [1] deals with β-glucuronidase derived from E. Coli. The data set is described as follows: In vitro incubation of Glu A and Glu B with β-glucuronidase. The data set is classed as in vitro ADME. The conditions noted are these: for Glucuronide remaining: 500 μM glucuronide, β-glucuronidase, 37° C.; for Stability in control samples without β-glucuronidase: control incubation, no enzyme. On the procedure: β-glucuronidase derived from E. Coli, glucurase at a concentration of 5,000 units/ml and bovine serum albumin were obtained from Sigma (St. Louis, Mo.). Glu A and Glu B were incubated at a concentration of 500 μM with β-glucuronidase ([…]) in 100 mM potassium acetate buffer solution in a 0.5 ml filter tube. The incubations were run in triplicate.
To each filter tube, 65 μl of 100 mM potassium acetate buffer, 5 μl of bovine serum albumin, and 100 μl of glucurase were added (100 mM potassium acetate was added to the control wells). The pH was adjusted to either pH 5.0 using 1N potassium hydroxide. 10 μl of 10 mM GluA or GluB were then added and the filter tubes were incubated for 30 minutes, 60 minutes or 18 hours at 37° C. Following incubation 20 μl of acetonitrile was added to the filter tubes and the filter tubes were centrifuged. The resulting filtrate was then analyzed by HPLC.
Glu A (500 μM) and Glu B (500 μM) were incubated with β-glucuronidase at 37° C. in pH 5.0 and pH 7.4 buffers. The pH 7.4 buffer is representative of the in vivo pH range in the GI tract. The results of each treatment are shown in Tables 5 (pH 5.0) and Table 6 (pH 7.4).
Glu A was prepared fresh in these experiments. A time-dependent incubation of Glu A and Glu B was carried out for 2, 4 and 6 hours.

Data set [2] can be described thus: Absorption (physicochemical properties).
A short description of a further data set: Solubility. The format is physicochemical.
A further data set can be described thus: Stability in DMSO. The format is physicochemical. The conditions noted are these: especially after freezing and thawing.

For `COc1cc2c(cc1OC)-c1nn(C3OC(C(=O)O)C(O)C(O)C3O)c(Nc3cccc(F)c3)c1C2` (stereo in doubt) [Cpd 1-GluB], the Glucuronide remaining was found to be 100% Glu-B in data set [1] (pH 5.0, 0 hr); 100% Glu-B in data set [1] (pH 5.0, 0.5 hrs); 100% Glu-B in data set [1] (pH 5.0, 1 hr); 100% Glu-B in data set [1] (pH 7.4, 0 hr); 100% Glu-B in data set [1] (pH 7.4, 2 hrs); 100% Glu-B in data set [1] (pH 7.4, 4 hrs). Further, the “Stability in control samples without β-glucuronidase” value in data set [1] is recorded as “stable”.

For the compound `COc1cc2c(cc1OC)-c1n[nH]c(Nc3cccc(F)c3)c1C2` [Compound 1, (6,7-dimethoxy-2,4-dihydro-indeno[1,2-c]pyrazol-3-yl)-(3-fluoro-phenyl)-amine], in data set [2], the Absorption came to 1.3e-05 cm/s. For the same compound, the solubility (usually the concentration that dissolves in the medium under given conditions) is less than 6 µg/mL in the data set “Solubility” (aqueous media, aqueous buffer, pH 3.0, read-out: Solubility in aqueous media); less than 2 µg/mL in the data set “Solubility” (aqueous media, aqueous buffer, pH 7.0, read-out: Solubility in aqueous media); 10000 µg/mL (≈ 30.7 mM) in “Solubility” (aqueous with cosolvent or surfactant or cyclodextrin, 20/80-weight% Tween 80/DI water, read-out: Solubility); 7500 µg/mL (≈ 23.1 mM) in the data set “Solubility” (neat PEG-400, organic solvent or mixture, read-out: Solubility).

For the compound `COc1cc2c(cc1OC)-c1n[nH]c(N(c3cccc(F)c3)[C@H]3O[C@@H](C(=O)O)[C@H](O)[C@@H](O)[C@@H]3O)c1C2` [Cpd 1-GluA], the Glucuronide remaining is given as 100% Glu-A in data set [1] (pH 5.0, 0 hr); 60% Glu-A in data set [1] (pH 5.0, 0.5 hrs); 34% Glu-A in data set [1] (pH 5.0, 1 hr); 0% Glu-A in data set [1] (pH 5.0, 18 hrs); 100% Glu-A in data set [1] (pH 7.4, 0 hr); 67% Glu-A in data set [1] (pH 7.4, 2 hrs). Further, the Glucuronide remaining turned out to be 48% Glu-A in data set [1] (pH 7.4, 4 hrs) and 23% Glu-A in data set [1] (pH 7.4, 6 hrs). Also, in data set [1], the “Stability in control samples without β-glucuronidase” value is listed as “stable”. The “Stability in DMSO” value in “Stability in DMSO” is “relatively unstable”.
